From US20240018121A1, “NOVEL HETEROAROMATIC COMPOUNDS EXHIBITING ANTIFUNGAL ACTIVITY AND THEIR METHOD OF USE” (FOX CHASE CHEMCIAL DIVERSITY CENTER, INC., priority 2020, published 2024)
Values after ≈ are worked out from the molar mass of the structure shown. Structures can show the parent of a compound that is named as a salt. Where two headings read alike, the source gives them in different places.

Tests used:
Format in all cases: cell-based
[1] = test system: Aspergillus flavus AFL1 (ATCC MYA-3631); assay: Fungal MIC Protocol, Aspergillus flavus; conditions: Aspergillus flavus, read-out: MIC Aspergillus flavus 3631
How it was run: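 The MIC against Aspergillus flavus was measured by broth microdilution in RPMI/MOPS medium at pH 7.0. Compounds were diluted to 200 ug/mL from DMSO stocks, then ten serial dilutions were tested in duplicate in round bottom 96-well plates. Spores adjusted to a final OD530 of 0.002 were added, with no-cell and no-compound control wells, and plates were incubated 48 hours at 35° C.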

[2] = test system: Aspergillus fumigatus T33439 (ATCC MYA-3626); assay: Fungal MIC Protocol, Aspergillus fumigatus; conditions: Aspergillus fumigatus, read-out: MIC Aspergillus fumigatus 3626
How it was run: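 This broth microdilution MIC test used RPMI/MOPS medium at pH 7.0 with glucose. Compounds were diluted from DMSO stock to 200 ug/mL and serially diluted ten times in 96-well round bottom plates. Equal volumes of compound and Aspergillus spore suspension at OD530 0.002 were combined, with controls of compound without cells and spores without compound. Plates were bagged and incubated at 35° C. for 48 hours.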

[3] = test system: Fusarium falciforme FS1 (ATCC MYA-3636); assay: Fungal MIC Protocol, Fusarium falciforme; conditions: Fusarium falciforme, read-out: MIC Fusarium falciforme 3636
How it was run: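 MIC against Fusarium falciforme was determined by broth microdilution in RPMI/MOPS medium containing glucose. Compounds started at 200 ug/mL and were serially diluted ten times, then combined with harvested spores adjusted to an OD530 of 0.005. Controls held compound without cells and spores without compound. Plates were bagged and incubated at 35° C. for 48 hours.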

[4] = test system: Fusarium solani (ATCC 58877); assay: Fungal MIC Protocol, Fusarium solani; conditions: Fusarium solani, read-out: MIC Fusarium solani 58877
How it was run: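 Broth microdilution MIC test against Fusarium solani in RPMI/MOPS medium at pH 7.0. Compounds from DMSO stock were diluted to 200 ug/mL, then serially diluted ten times and plated in duplicate at 50 μl per well. 50 ul of spore suspension at OD530 0.005 was added. Controls had compound without cells and spores without compound. Plates were mixed gently, bagged, and incubated at 35° C. for 48 hours.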

[5] = test system: Mucor circinelloides 1463(62) (ATCC 26759); assay: Fungal MIC Protocol, Mucor circinelloides (MIC-50); conditions: Mucor circinelloides, read-out: MIC-50 Mucorales circinelloides 26579
How it was run: (§1)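 MIC-type endpoint: >50% growth inhibition, judged by eye with an inverted mirror. Spores in RPMI/MOPS (pH 7.0, ~2×10^4 cfu/mL) were incubated 48 hours at 35° C with duplicate serial compound dilutions.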

[6] = test system: Mucor ramosissimus 057718 (ATCC 90286); assay: Fungal MIC Protocol, Mucor ramosissimus (MIC-50); conditions: Mucor ramosissimus, read-out: MIC-50 Mucorales ramosissimus 90286
How it was run: as §1

[7] = test system: Candida albicans GDH2346; assay: Candida Minimal Inhibitory Concentration (MIC); conditions: Candida albicans, read-out: MIC-50 Candida albicans GDH2346
How it was run: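 Twofold serial dilutions from 200 μg/mL in RPMI 1640/MOPS with glucose, pH 7.0, tested in duplicate against yeast from an OD600 1.0 suspension diluted 1:1000. Incubated at 35° C; OD600 read at 24 and 48 h.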

[8] = 100% growth inhibition at 48 hours
[9] = ATCC58877, 100% growth inhibition at 48 hours
[10] = ATCC26759, 50% growth inhibition at 48 hours
[11] = ATCC90286, 50% growth inhibition at 48 hours
[12] = GDH2346, 50% growth inhibition at 48 hours

Compound	MIC [1, 8] [µg/mL]	MIC [2, 8] [µg/mL]	MIC [3, 8] [µg/mL]	MIC [4, 9] [µg/mL]	MIC50 [5, 10] [µg/mL]	MIC50 [6, 11] [µg/mL]	MIC50 [7, 12] [µg/mL]	MIC ([1]; 48 h) [µg/mL]	MIC ([2]; 48 h) [µg/mL]	MIC ([3]; 48 h) [µg/mL]	MIC ([4]; ATCC58877, 48 h) [µg/mL]	MIC50 ([5]; ATCC26759, 48 h) [µg/mL]	MIC50 ([6]; ATCC90286, 48 h) [µg/mL]	MIC50 ([7]; GDH2346, 48 h) [µg/mL]
Cc1cc(-c2nnc(-c3ccc(C4=CCN(C(=N)N)CC4)cc3)o2)ccc1C1=CCN(C(=N)N)CC1 [Example 42, 4-(4-(5-(4-(1-Carbamimidoyl-1,2,3,6-tetrahydropyridin-4-yl)-3-methylphenyl)-1,3,4-oxadiazol-2-yl)phenyl)-5,6-dihydropyridine-1(2H)-carboximidamide]	6.25 (≈ 13 µM)	> 25	0.39 (≈ 0.808 µM)	1.56 (≈ 3.23 µM)	25 (≈ 51.8 µM)	25 (≈ 51.8 µM)	0.39 (≈ 0.808 µM)							
Cc1cc(C2=CCN(C(=N)N)CC2)ccc1-n1cc(-c2ccc(C3=CCN(C(=N)N)CC3)cc2)nn1 [Example 34, 4-(4-(1-(4-(1-Carbamimidoyl-1,2,3,6-tetrahydropyridin-4-yl)-2-methylphenyl)-1H-1,2,3-triazol-4-yl)phenyl)-5,6-dihydropyridine-1(2-H)-carboximidamide]	0.2 (≈ 0.415 µM)	0.2 (≈ 0.415 µM)	< 0.1	0.39 (≈ 0.81 µM)	0.39 (≈ 0.81 µM)	25 (≈ 51.9 µM)	0.16 (≈ 0.332 µM)							
Cc1c(-c2ccc(C3=CCN(C(=N)N)CC3)cc2)nnn1-c1ccc(C2=CCN(C(=N)N)CC2)cc1 [Example 31, 4-(4-{1-[4-(1-Carbamimidoyl-1,2,3,6-tetrahydropyridin-4-yl)phenyl]-5-methyl-1H-1,2,3-triazol-4-yl}phenyl)-1,2,3,6-tetrahydropyridine-1-carboximidamide]	< 0.05	< 0.05	< 0.05	< 0.05	0.78 (≈ 1.62 µM)	1.56 (≈ 3.24 µM)	0.1 (≈ 0.208 µM)							
Cn1c(-c2ccc(C3=CCN(C(=N)N)CC3)cc2)nnc1-c1ccc(C2=CCN(C(=N)N)CC2)cc1F [Example 78, 4-(4-{5-[4-(1-carbamimidoyl-1,2,3,6-tetrahydropyridin-4-yl)-2-fluorophenyl]-4-methyl-4H-1,2,4-triazol-3-yl}phenyl)-1,2,3,6-tetrahydropyridine-1-carboximidamide trifluoroacetate]								0.1	0.05	0.05	0.1	0.2	0.78	0.2
CCCCCCCCn1c(-c2ccc(C3=CCN(C(=N)N)CC3)cc2F)nnc1-c1ccc(C2=CCN(C(=N)N)CC2)cc1F [Example 11, 4,4′-(4,4′-(4-Octyl-4H-1,2,4-triazole-3,5-diyl)bis(3-fluoro-4,1-phenylene))bis(5,6-dihydropyridine-1(2H)-carboximidamide)]	0.78 (≈ 1.27 µM)	0.39 (≈ 0.633 µM)	0.2 (≈ 0.325 µM)	0.2 (≈ 0.325 µM)	1.56 (≈ 2.53 µM)	3.13 (≈ 5.08 µM)	1.56 (≈ 2.53 µM)							
Cn1nc(-c2ccc(C3=CCN(C(=N)N)CC3)cc2)cc1-c1ccc(C2=CCN(C(=N)N)CC2)cc1 [Example 54, 4,4′-(4,4′-(1-Methyl-1H-pyrazole-3,5-diyl)bis(4,1-phenylene)) bis(5,6-dihydropyridine-1(2H)-carboximidamide)]	0.39 (≈ 0.811 µM)	1.56 (≈ 3.25 µM)	< 0.1	0.78 (≈ 1.62 µM)	0.39 (≈ 0.811 µM)	3.13 (≈ 6.51 µM)	0.5 (≈ 1.04 µM)							
N=C(N)N1CC=C(c2ccc(-c3nnc(-c4ccc(C5=CCN(C(=N)N)CC5)cc4F)n3CCO)cc2)CC1 [Example 82, 4-(4-{5-[4-(1-carbamimidoyl-1,2,3,6-tetrahydropyridin-4-yl)-2-fluorophenyl]-4-(2-hydroxyethyl)-4H-1,2,4-triazol-3-yl}phenyl)-1,2,3,6-tetrahydropyridine-1-carboximidamide hydrochloride]								0.2	0.1	0.05	0.05	0.39	1.56	0.2
